Laboratory results from patent publication US9708331B2, “Metabotrophic glutamate receptor 5 modulators and methods of use thereof” (SUNOVION PHARMACEUTICALS INC., priority 2011, dated 2017).

The molecules below were run against mGluR5 (Homo sapiens, UniProt P41594) (assay: mGluR5 PAM EC50 (positive allosteric modulator potency)).
Type: cell-based

mGluR5, sequence (P41594 21-1212): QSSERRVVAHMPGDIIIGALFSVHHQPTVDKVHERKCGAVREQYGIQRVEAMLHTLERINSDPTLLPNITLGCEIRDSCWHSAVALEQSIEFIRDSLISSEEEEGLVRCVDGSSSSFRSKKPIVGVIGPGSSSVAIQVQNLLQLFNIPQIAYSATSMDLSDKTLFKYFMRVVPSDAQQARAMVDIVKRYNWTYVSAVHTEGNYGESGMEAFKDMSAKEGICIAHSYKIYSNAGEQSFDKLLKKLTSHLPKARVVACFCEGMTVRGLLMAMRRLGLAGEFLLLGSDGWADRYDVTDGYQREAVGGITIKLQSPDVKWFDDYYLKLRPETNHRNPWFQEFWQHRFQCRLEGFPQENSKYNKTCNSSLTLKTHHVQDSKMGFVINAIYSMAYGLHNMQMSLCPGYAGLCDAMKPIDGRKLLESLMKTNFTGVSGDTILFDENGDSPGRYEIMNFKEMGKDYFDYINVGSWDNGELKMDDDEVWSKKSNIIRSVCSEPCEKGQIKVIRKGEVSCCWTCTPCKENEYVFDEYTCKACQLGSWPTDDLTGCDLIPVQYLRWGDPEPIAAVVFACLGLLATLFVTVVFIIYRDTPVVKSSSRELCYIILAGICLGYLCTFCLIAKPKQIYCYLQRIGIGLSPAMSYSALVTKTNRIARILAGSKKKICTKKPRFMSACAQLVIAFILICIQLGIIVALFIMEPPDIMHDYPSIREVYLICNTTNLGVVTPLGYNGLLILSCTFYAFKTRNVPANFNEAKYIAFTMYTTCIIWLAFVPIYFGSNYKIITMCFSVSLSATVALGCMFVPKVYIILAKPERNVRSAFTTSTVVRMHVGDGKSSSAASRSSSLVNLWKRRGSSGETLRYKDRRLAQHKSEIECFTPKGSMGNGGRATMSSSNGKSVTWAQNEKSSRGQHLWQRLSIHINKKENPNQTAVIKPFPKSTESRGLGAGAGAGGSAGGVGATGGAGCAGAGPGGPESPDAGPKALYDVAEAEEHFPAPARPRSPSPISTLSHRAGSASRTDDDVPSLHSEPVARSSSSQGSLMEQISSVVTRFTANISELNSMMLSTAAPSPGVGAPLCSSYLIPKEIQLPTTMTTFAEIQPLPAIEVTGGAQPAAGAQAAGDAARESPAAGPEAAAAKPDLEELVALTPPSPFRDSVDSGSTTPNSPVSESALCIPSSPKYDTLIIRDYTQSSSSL

| Structure (SMILES) | EC50 [nM] |
| --- | --- |
| CC1(C)CCc2nc3cc(C#Cc4cncc(F)c4)ccc3c(=O)n2C1 [Example 2.89, 3-((5-fluoropyridin-3-yl)ethynyl)-8,8-dimethyl-8,9-dihydro-6H-pyrido[2,1-b]quinazolin-11(7H)-one] | < 10 |
| O=c1c2ccc(C#Cc3ccccn3)cc2nc2n1CC1CCCCN21 (stereo not drawn) [Example 1.23, 3-(pyridin-2-ylethynyl)-9,10,10a,11-tetrahydro-7H-pyrido[1′,2′:3,4]imidazo[2,1-b]quinazolin-13(8H)-one] | 30 to 100 |
| C/C(=C\c1ccc2c(=O)n3c(nc2c1)CCC(C)(C)C3)c1ccccn1 [Example 6.5, (E)-8,8-dimethyl-3-(2-(pyridin-2-yl)prop-1-en-1-yl)-8,9-dihydro-6H-pyrido[2,1-b]quinazolin-11(7H)-one] | 100 to 300 |
| CC1(C)CCc2nc3cc(C#Cc4ccncc4F)ccc3c(=O)n2C1 [Example 2.91, 3-((3-fluoropyridin-4-yl)ethynyl)-8,8-dimethyl-8,9-dihydro-6H-pyrido[2,1-b]quinazolin-11(7H)-one] | < 10 |
| O=c1c2ccc(C#Cc3ccccn3)cc2nc2n1CCC(O)CC2 (single isomer, unassigned) [Example 3.2b] | 30 to 100 |
| CC1Cn2c(nc3cc(C#Cc4ccccn4)cnc3c2=O)CCC1(F)F (single isomer, unassigned) [Example 3.31e] | 30 to 100 |
| CC1(C)CCc2nc3cc(C#Cc4cc(C#N)ccn4)ccc3c(=O)n2C1 [Example 2.25b, 2-((8,8-dimethyl-11-oxo-7,8,9,11-tetrahydro-6H-pyrido[2,1-b]quinazolin-3-yl)ethynyl)isonicotinonitrile] | < 10 |
| O=c1c2ncc(C#Cc3ccccn3)cc2nc2n1CCC(F)(F)CC2 [Example 3.16, 8,8-difluoro-3-(pyridin-2-ylethynyl)-7,8,9,10-tetrahydropyrido[3′,2′:4,5]pyrimido [1,2-a]azepin-12(6H)-one] | 100 to 300 |
| CC1(C)CCc2nc3cc(NC(=O)c4ccccn4)ccc3c(=O)n2C1 [Example 4.7, N-(8,8-dimethyl-11-oxo-7,8,9,11-tetrahydro-6H-pyrido[2,1-b]quinazolin-3-yl)picolinamide] | 100 to 300 |
| O=c1c2ncc(C#Cc3ccccn3)cc2nc2n1CC(C(F)(F)F)C2 (stereo not drawn) [Example 1.17, 3-(pyridin-2-ylethynyl)-7-(trifluoromethyl)-7,8-dihydropyrido[3,2-d]pyrrolo[1,2-a]pyrimidin-10(6H)-one] | 100 to 300 |
| CC1(C)CCc2nc3cc(C#Cc4cccnc4F)ccc3c(=O)n2C1 [Example 2.87, 3-((2-fluoropyridin-3-yl)ethynyl)-8,8-dimethyl-8,9-dihydro-6H-pyrido[2,1-b]quinazolin-11(7H)-one] | < 10 |
| CC1(CO)CCc2nc3cc(C#Cc4ccccn4)ccc3c(=O)n2C1 (stereo not drawn) [Example 2.99, 8-(hydroxymethyl)-8-methyl-3-(pyridin-2-ylethynyl)-8,9-dihydro-6H-pyrido[2,1-b]quinazolin-11(7H)-one] | 30 to 100 |
| COc1ccc(C#Cc2ccc3c(=O)n4c(nc3c2)CCC(C)(C)C4)nc1 [Example 2.40, 3-((5-methoxypyridin-2-yl)ethynyl)-8,8-dimethyl-8,9-dihydro-6H-pyrido[2,1-b]quinazolin-11(7H)-one] | 30 to 100 |
| CC1(C)CCc2nc3cc(C#Cc4ccnc(F)c4)ccc3c(=O)n2C1 [Example 2.92, 3-((2-fluoropyridin-4-yl)ethynyl)-8,8-dimethyl-8,9-dihydro-6H-pyrido[2,1-b]quinazolin-11(7H)-one] | < 10 |
| CC1CCc2nc3c(F)c(C#Cc4ccccn4)ccc3c(=O)n2CC1 (single isomer, unassigned) [Example 3.12a] | < 10 |
| O=c1c2ccc(C#Cc3ccccn3)cc2nc2n1CC(CF)C2 (single isomer, unassigned) [Example 1.9a] | 30 to 100 |
| Cc1cnc(C#Cc2ccc3c(=O)n4c(nc3c2)CCC(C)(C)C4)s1 [Example 2.50, 8,8-dimethyl-3-((5-methylthiazol-2-yl)ethynyl)-8,9-dihydro-6H-pyrido[2,1-b]quinazolin-11(7H)-one] | < 10 |
| O=c1c2ccc(C#Cc3ccccn3)cc2nc2n1CC1(CCC2)COC1 [Example 3.38, 3-(pyridin-2-ylethynyl)-7,8-dihydro-6H-spiro[azepino[2,1-b]quinazoline-9,3′-oxetan]-12(10H)-one] | 10 to 30 |
| O=c1c2ccc(C#Cc3ccccn3)cc2nc2n1C[C@H]1CCCN1C2 [Example 2.104, (R)-8-(pyridin-2-ylethynyl)-2,3,13,13a-tetrahydro-1H-pyrrolo[1′,7′:4,5]pyrazino[2,1-b]quinazolin-11(5H)-one] | 30 to 100 |
| CC1(C)CCc2nc3cc(/C=C/c4cc(C#N)ccn4)ccc3c(=O)n2C1 [Example 4.1b, (E)-2-(2-(8,8-dimethyl-11-oxo-7,8,9,11-tetrahydro-6H-pyrido[2,1-b]quinazolin-3-yl)vinyl)isonicotinonitrile] | 300 to 1000 |
| CC1(C)CCc2nc3cc(-c4ncc(-c5ccccn5)o4)ccc3c(=O)n2C1 [Example 6.25, 8,8-dimethyl-3-(5-(pyridin-2-yl)oxazol-2-yl)-8,9-dihydro-6H-pyrido[2,1-b]quinazolin-11(7H)-one] | 100 to 300 |
| CC1(C)Cc2nc3cc(NC(=O)c4ccccn4)ccc3c(=O)n2C1 [Example 4.18, N-(2,2-dimethyl-9-oxo-1,2,3,9-tetrahydropyrrolo[2,1-b]quinazolin-6-yl)picolinamide] | 300 to 1000 |
| CC1CCc2nc3cc(C#Cc4ccccn4)ccc3c(=O)n2C1 (single isomer, unassigned) [Example 2.2b] | 10 to 30 |

| Structure (SMILES) | EC50 [nM] |
| --- | --- |
| CC1(F)CCc2nc3cc(C#Cc4ccccn4)ccc3c(=O)n2C1 (single isomer, unassigned) [Example 2.13a] | 10 to 30 |
| CC1(C)CCc2nc3cc(-c4nc(-c5ccccn5)c[nH]4)ccc3c(=O)n2C1 [Example 6.21, 8,8-dimethyl-3-(4-(pyridin-2-yl)-1H-imidazol-2-yl)-8,9-dihydro-6H-pyrido[2,1-b]quinazolin-11(7H)-one] | 300 to 1000 |
| O=c1c2ccc(C#Cc3ccccn3)cc2nc2n1CCC1COCC1C2 (single isomer, unassigned) [Example 3.2e] | 30 to 100 |
| CC1(C)CCc2nc3cc(C#Cc4ccc(F)nc4)ccc3c(=O)n2C1 [Example 2.88, 3-((6-fluoropyridin-3-yl)ethynyl)-8,8-dimethyl-8,9-dihydro-6H-pyrido[2,1-b]quinazolin-11(7H)-one] | < 10 |
| CC1(C)CCc2nc3cc(-c4ncc(-c5ccccn5)cn4)ccc3c(=O)n2C1 [Example 6.42, 8,8-dimethyl-3-(5-(pyridin-2-yl)pyrimidin-2-yl)-8,9-dihydro-6H-pyrido[2,1-b]quinazolin-11(7H)-one] | 300 to 1000 |
| C=CC1(O)CCc2nc3cc(C#Cc4ccccn4)ccc3c(=O)n2C1 (stereo not drawn) [Example 2.18, 8-hydroxy-3-(pyridin-2-ylethynyl)-8-vinyl-8,9-dihydro-6H-pyrido[2,1-b]quinazolin-11(7H)-one] | 300 to 1000 |
| CC(C)(F)C1Cc2nc3cc(C#Cc4ccccn4)ccc3c(=O)n2C1 (single isomer, unassigned) [Example 1.3a] | < 10 |
| CC1(C)CCc2nc3cc(C#Cc4ncc(F)cn4)ccc3c(=O)n2C1 [Example 2.54, 3-((5-fluoropyrimidin-2-yl)ethynyl)-8,8-dimethyl-8,9-dihydro-6H-pyrido[2,1-b]quinazolin-11(7H)-one] | 30 to 100 |
| CC1(C)CCc2nc3cc(C#Cc4ncccc4F)ccc3c(=O)n2C1 [Example 2.86, 3-((3-fluoropyridin-2-yl)ethynyl)-8,8-dimethyl-8,9-dihydro-6H-pyrido[2,1-b]quinazolin-11(7H)-one] | < 10 |
| CCC1CCCc2nc3cc(C#Cc4ccccn4)ccc3c(=O)n21 (single isomer, unassigned) [Example 2.7b] | < 10 |
| O=c1c2ccc(C#Cc3ccccn3)cc2nc2n1CCC1(CCCO1)CC2 (single isomer, unassigned) [Example 3.3b] | 100 to 300 |
| CC1(C)CCn2c(nc3cc(/C=C/c4cc(C#N)ccn4)ccc3c2=O)C1 [Example 4.1a, (E)-2-(2-(7,7-dimethyl-11-oxo-7,8,9,11-tetrahydro-6H-pyrido[2,1-b]quinazolin-3-yl)vinyl)isonicotinonitrile] | 300 to 1000 |
| CC1(F)CCc2nc3cc(C#Cc4ccccn4)cnc3c(=O)n2CC1 (single isomer, unassigned) [Example 3.10a] | 100 to 300 |
| CC1(C)CCc2nc3cc(C(=O)Nc4ccccn4)ccc3c(=O)n2C1 [Example 4.8, 8,8-dimethyl-11-oxo-N-(pyridin-2-yl)-7,8,9,11-tetrahydro-6H-pyrido[2,1-b]quinazoline-3-carboxamide] | 100 to 300 |
| CC1(C)CCn2c(nc3c(F)c(C#Cc4ccccn4)ccc3c2=O)C1 [Example 2.30a, 4-fluoro-7,7-dimethyl-3-(pyridin-2-ylethynyl)-8,9-dihydro-6H-pyrido[2,1-b]quinazolin-11(7H)-one] | 10 to 30 |
| O=c1c2ccc(C#Cc3ccccn3)cc2nc2n1CCC1COCC1C2 (single isomer, unassigned) [Example 3.2f] | < 10 |
| O=c1c2ccc(C#Cc3ccccn3)cc2nc2n1CCN1CCC2C1 (stereo not drawn) [Example 3.6, 9-(pyridin-2-ylethynyl)-1,2,5,6-tetrahydro-3,6-methano[1,4]diazocino[8,1-b]quinazolin-12(4H)-one] | 100 to 300 |
| COCCC1Cc2nc3cc(C#Cc4ccccn4)cnc3c(=O)n2C1 (stereo not drawn) [Example 1.18, 7-(2-methoxyethyl)-3-(pyridin-2-ylethynyl)-7,8-dihydropyrido[3,2-d]pyrrolo[1,2-a]pyrimidin-10(6H)-one] | 300 to 1000 |
| CCC1CCc2nc3cc(C#Cc4ccccn4)cnc3c(=O)n2C1 (single isomer, unassigned) [Example 2.22b] | 100 to 300 |
| CC1(F)CCCc2nc3cc(C#Cc4ccccn4)ccc3c(=O)n2C1 (single isomer, unassigned) [Example 3.24a] | < 10 |
| CC1(C)Cn2c(nc3cc(C#Cc4ccccn4)cnc3c2=O)C1F (stereo not drawn) [Example 1.20, 6-fluoro-7,7-dimethyl-3-(pyridin-2-ylethynyl)-7,8-dihydropyrido[3,2-d]pyrrolo[1,2-a]pyrimidin-10(6H)-one] | 100 to 300 |
| CC1(C)CC(F)c2nc3cc(C#Cc4ccccn4)cnc3c(=O)n2C1 (single isomer, unassigned) [Example 2.15a] | 30 to 100 |
